Results reported in US6087493A, “Porphyrin compounds as telomerase inhibitors” (Regents of the University of Texas System, priority 1998, dated 2000).

Tested on: not given
Test: not given
Conditions: 25 μM; Table 9

Compound	% insoluble remark (solubility)
O=[N+]([O-])c1cccc(-c2c3nc(cc4ccc([nH]4)c(-c4cccc([N+](=O)[O-])c4)c4nc(cc5ccc2[nH]5)C=C4)C=C3)c1 [Compound D16]	insoluble
O=[N+]([O-])c1cc(-c2c3nc(c(-c4ccc(Cl)c([N+](=O)[O-])c4)c4ccc([nH]4)c(-c4ccc(Cl)c([N+](=O)[O-])c4)c4nc(c(-c5ccc(Cl)c([N+](=O)[O-])c5)c5ccc2[nH]5)C=C4)C=C3)ccc1Cl [Compound D13, 5,10,15,20-tetra-(4-chloro-3-nitrophenyl)porphine]	insoluble

Molecular target: human telomerase (Homo sapiens, UniProt O14746)
Sequence (O14746 whole entry): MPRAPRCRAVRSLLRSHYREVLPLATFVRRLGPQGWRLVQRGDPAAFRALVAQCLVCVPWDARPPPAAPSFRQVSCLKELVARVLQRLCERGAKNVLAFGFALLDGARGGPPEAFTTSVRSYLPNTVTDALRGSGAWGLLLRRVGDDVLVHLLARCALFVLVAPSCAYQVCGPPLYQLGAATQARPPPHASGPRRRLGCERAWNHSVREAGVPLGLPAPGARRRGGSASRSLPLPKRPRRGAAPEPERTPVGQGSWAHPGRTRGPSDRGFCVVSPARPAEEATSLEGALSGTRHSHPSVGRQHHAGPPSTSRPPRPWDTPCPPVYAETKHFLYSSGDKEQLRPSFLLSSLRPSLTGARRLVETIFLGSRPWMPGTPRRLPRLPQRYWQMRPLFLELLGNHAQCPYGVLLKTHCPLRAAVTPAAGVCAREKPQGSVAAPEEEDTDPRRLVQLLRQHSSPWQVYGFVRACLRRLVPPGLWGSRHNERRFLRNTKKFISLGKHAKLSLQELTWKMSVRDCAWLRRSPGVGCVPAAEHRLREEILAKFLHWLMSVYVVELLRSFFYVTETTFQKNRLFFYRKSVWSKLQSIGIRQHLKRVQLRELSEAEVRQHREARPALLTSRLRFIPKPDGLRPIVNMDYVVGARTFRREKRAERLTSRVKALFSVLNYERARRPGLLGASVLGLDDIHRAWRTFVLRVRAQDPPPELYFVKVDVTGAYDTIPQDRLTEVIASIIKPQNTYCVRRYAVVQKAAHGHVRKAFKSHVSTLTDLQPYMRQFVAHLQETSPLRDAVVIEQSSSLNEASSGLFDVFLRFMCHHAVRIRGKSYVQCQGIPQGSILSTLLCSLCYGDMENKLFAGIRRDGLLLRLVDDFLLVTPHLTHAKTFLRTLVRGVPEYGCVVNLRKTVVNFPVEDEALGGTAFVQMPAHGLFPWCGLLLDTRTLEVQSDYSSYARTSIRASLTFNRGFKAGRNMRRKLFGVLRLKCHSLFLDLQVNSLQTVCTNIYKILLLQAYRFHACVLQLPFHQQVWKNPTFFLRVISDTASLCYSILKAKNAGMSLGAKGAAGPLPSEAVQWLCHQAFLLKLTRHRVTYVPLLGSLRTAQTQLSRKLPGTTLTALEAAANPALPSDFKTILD
Test: Telomerase inhibition, primer extension assay in HeLa cell extract
Type: biochemical
Conditions: not given

Compound	telomerase inhibition in words
Copper(II)tetraaminophthalocyanine [Compound B14]	active
5,10-di-(N-methyl-4-pyridyl)-15,20-di-(3-nitrophenyl)porphine chloride [Compound D20]	good activity
C[n+]1ccc(-c2c3nc(c(-c4cc[n+](C)cc4)c4ccc([n-]4)c(-c4cc[n+](C)cc4)c4nc(c(-c5cc[n+](C)cc5)c5ccc2[n-]5)C=C4)C=C3)cc1.[Cl-].[Cl-].[Cl-].[Cl-].[Zn+2] [TMPyP4 ZnII]	better inhibitors
Copper(II)tetra-N-methyl-tetrazaphthalocyanine [Compound D7]	only slight activity

Same assay, conditions: 25 µM

Compound	% Inhibition of telomerase
C[n+]1ccc(-c2c3nc(c(-c4cc[n+](C)cc4)c4ccc([n-]4)c(-c4cc[n+](C)cc4)c4nc(c(-c5cc[n+](C)cc5)c5ccc2[n-]5)C=C4)C=C3)cc1.[Cl-].[Cl-].[Cl-].[Cl-].[Zn+2] [TMPyP4 ZnII]	88%

Same assay, conditions: 25 μM; Table 5

% Inhibition of telomerase	Compound
0%	Ethylenediamine protoporphyrin-IX [Compound B19]

Same assay, conditions: 25 μM; Table 5; read-out: % Inhibition of telomerase

Compound	inhibition at 25 µM
C[n+]1ccccc1-c1c2nc(c(-c3cccc[n+]3C)c3ccc([nH]3)c(-c3cccc[n+]3C)c3nc(c(-c4cccc[n+]4C)c4ccc1[nH]4)C=C3)C=C2 [Compound B8, Tetra(N-methyl-2-pyridyl)porphyrin chloride]	0%

Same assay, conditions: 25 μM; Table 6

Compound	% Inhibition of telomerase
5,10-di-(N-methyl-3-quinolyl)-15,20-di-(N-methyl-3-pyridyl)porphine chloride [Compound D12]	80%

Same assay, conditions: 25 μM; Table 7; read-out: % Inhibition of telomerase

inhibition at 25 µM	Compound
34%	C[n+]1ccc(-c2c3nc(c(-c4ccccc4)c4ccc([nH]4)c(-c4ccccc4)c4nc(c(-c5ccccc5)c5ccc2[nH]5)C=C4)C=C3)cc1 [Compound B24]
18%	C[n+]1cccc(-c2c3nc(c(-c4ccccc4)c4ccc([nH]4)c(-c4ccc[n+](C)c4)c4nc(c(-c5ccccc5)c5ccc2[nH]5)C=C4)C=C3)c1 [Compound B9, 5,15-Diphenyl-10,20-di(N-methyl-3-pyridyl)porphyrin chloride]
30%	C[n+]1ccc(-c2c3nc(c(-c4ccccc4)c4ccc([nH]4)c(-c4cc[n+](C)cc4)c4nc(c(-c5ccccc5)c5ccc2[nH]5)C=C4)C=C3)cc1 [Compound B4, 5,15-Diphenyl-10,20-di(N-methyl-4-pyridyl)porphyrin chloride]
35%	C[n+]1cccc(-c2c3nc(c(-c4ccccc4)c4ccc([nH]4)c(-c4ccccc4)c4nc(c(-c5ccccc5)c5ccc2[nH]5)C=C4)C=C3)c1 [Compound B25]
20%	C[n+]1cccc(-c2c3nc(c(-c4ccc[n+](C)c4)c4ccc([nH]4)c(-c4ccccc4)c4nc(c(-c5ccccc5)c5ccc2[nH]5)C=C4)C=C3)c1 [Compound B22]

Compound	inhibition at 25 µM
C[n+]1ccc(-c2c3nc(c(-c4cc[n+](C)cc4)c4ccc([nH]4)c(-c4cc[n+](C)cc4)c4nc(c(-c5ccccc5)c5ccc2[nH]5)C=C4)C=C3)cc1 [Compound B6, Tri(N-methyl-4-pyridyl)phenylporphyrin chloride]	15%

Same assay, conditions: 25 μM; Table 9; read-out: % Inhibition of telomerase

inhibition at 25 µM	Compound
50%	COc1ccc(-c2c3nc(c(-c4ccc(OC)c(O)c4)c4ccc([nH]4)c(-c4ccc(OC)c(O)c4)c4nc(c(-c5ccc(OC)c(O)c5)c5ccc2[nH]5)C=C4)C=C3)cc1O [Compound D17, 5,10,15,20-tetra-(4-methoxy-3-hydroxyphenyl)porphine]

Same assay, conditions: 25 μM; Table 10

Compound	% Inhibition of telomerase
5,10-di-(N-methyl-4-pyridyl)-15,20-di-(3-nitrophenyl)porphine chloride [Compound D20]	70%

Same assay, conditions: 25 μM; Table 13; read-out: % Inhibition of telomerase

inhibition at 25 µM	Compound
47%	C[n+]1ccc(-c2c3nc(c(-c4ccccc4)c4ccc([nH]4)c(-c4cc[n+](C)cc4)c4nc(c(-c5ccccc5)c5ccc2[nH]5)C=C4)C=C3)cc1 [Compound B4, 5,15-Diphenyl-10,20-di(N-methyl-4-pyridyl)porphyrin chloride]
3%	Nc1ccccc1-c1c2nc(c(-c3ccccc3N)c3ccc([nH]3)c(-c3ccccc3N)c3nc(c(-c4ccccc4N)c4ccc1[nH]4)C=C3)C=C2 [Compound B3, Tetra-(2-aminophenyl)porphyrin]

Same assay, conditions: Table 15; concentration fixed at 25 μM; read-out: % Inhibition of telomerase

inhibition at 25 µM	Compound
6%	C=CC1=C(C)c2cc3[nH]c(cc4nc(cc5[nH]c(cc1n2)c(C)c5C=C)C(C)=C4CCC(=O)OC)c(CCC(=O)OC)c3C [Compound H17]
24%	COC(=O)CCC1=C(C)c2cc3[nH]c(cc4nc(cc5[nH]c(cc1n2)c(CCC(=O)OC)c5C)C(C)=C4S(=O)(=O)O)c(C)c3S(=O)(=O)O [Compound H8]
18%	CC1=C(CCC(=O)O)c2cc3[nH]c(cc4nc(cc5[nH]c(cc1n2)c(C(C)O)c5C)C(C(C)O)=C4C)c(C)c3CCC(=O)O (centres unmarked) [Compound H12]
12%	CCC1=C(CC)c2cc3[nH]c(cc4nc(cc5[nH]c(cc1n2)c(CC)c5CC)C(CC)=C4CC)c(CC)c3CC [Compound H1]
0%	COC(=O)CCC1=C(C)c2cc3[nH]c(cc4nc(cc5[nH]c(cc1n2)c(CCC(=O)OC)c5C)C(C)=C4Br)c(C)c3Br [Compound H10]
33%	COC(=O)CCC1=C(C)c2cc3[nH]c(cc4nc(cc5[nH]c(cc1n2)c(CCC(=O)OC)c5C)C(C)=C4CCC(=O)OC)c(CCC(=O)OC)c3C [Compound H21]
19%	COC(=O)CCC1=C(CC(=O)OC)c2cc3[nH]c(cc4nc(cc5[nH]c(cc1n2)c(CCC(=O)OC)c5CC(=O)OC)C(CC(=O)OC)=C4CCC(=O)OC)c(CCC(=O)OC)c3CC(=O)OC [Compound H22]
6%	CCC1=C(C)c2cc3[nH]c(cc4nc(cc5[nH]c(cc1n2)c(C)c5CC)C(C)=C4CCC(=O)O)c(CCC(=O)O)c3C [Compound H15]
17%	C=CC1=C(C)c2cc3[nH]c(cc4nc(cc5[nH]c(cc1n2)c(C)c5C=C)C(C)=C4CCC(=O)O)c(CCC(=O)O)c3C [Compound H18]
23%	CCC1=C(C)c2cc3[nH]c(cc4nc(cc5[nH]c(cc1n2)c(C)c5CC)C(C)=C4CCCO)c(CCCO)c3C [Compound H26]
5%	CC1=C(CCC(=O)O)c2cc3[nH]c(cc4nc(cc5[nH]c(cc1n2)c(C)c5CCC(=O)O)C(CCC(=O)O)=C4C)c(C)c3CCC(=O)O [Compound H23]
18%	CCOC(=O)CCc1c(C)c2cc3nc(cc4[nH]c(cc5nc(cc1[nH]2)C(C)=C5CC)c(C)c4CC)C(C)=C3C(=O)OCC [Compound H25]
24%	C=CC1=C(C)c2cc3[nH]c(cc4nc(cc5[nH]c(cc1n2)c(C)c5C=C)C(C)=C4CCCO)c(CCCO)c3C [Compound H27]
0%	CCOC(=O)CCC1=C(C)c2cc3[nH]c(cc4nc(cc5[nH]c(cc1n2)c(CC)c5C)C(CC)=C4C)c(C)c3C [Compound H28]
-10%	CC1=C(C=O)c2cc3[nH]c(cc4nc(cc5[nH]c(cc1n2)c(CCC(=O)O)c5C)C(CCC(=O)O)=C4C)c(C=O)c3C [Compound H31]
